Experiments:
PKC in HeLa cells = test: Microinjection studies in TPA-stimulated living HeLa cells; format: cell-based; conditions: co-injected with peptide 2; 20 μM estimated intracellular concentration
Description: Microinjection Studies-Subconfluent, serum-starved (24 hr), HeLa cells were cultured on 22 mm coverslips in DMEM in a humidified atmosphere containing 5% CO2. […] Microinjections were performed with an Eppendorf (Brinkman Instruments, Westbury, N.Y.) 5246 microinjection apparatus mounted on the microscope inside the environmental chamber. The peptide was estimated to be diluted 10-fold upon microinjection, using the equation for volume (V) flow through a capillary tube:
[formula] where p is the difference in pressure at the ends of the tube (290 hPa), r the radius (0.05 μm) and l the length (10 μm) of the tube, η the viscosity of the injected solution (0.69×10^−2 g/cm-sec), and t the total injection time (0.3 sec). The average volume of a fibroblast was taken as 2 pL.^18 12-O-tetradecanoyl phorbol-13-acetate (TPA) (1 μM) was added to the media following microinjection to stimulate PKC activity. […] Fluorescence intensity measurements were corrected using values from a standard photobleaching curve generated from control experiments with microinjected HeLa cells that had not been treated with TPA. […]

PKC = conditions: cited from earlier work

Question: What does the source list for `CN(C)CCCn1cc(C2=C(c3c[nH]c4ccccc34)C(=O)NC2=O)c2ccccc21` [GF 109203X]?
Answer: effect of inhibitor on TPA-induced enhancement in cellular fluorescence (PKC in HeLa cells): effectively blocks the TPA-induced enhancement in cellular fluorescence; Ki (PKC): low nanomolar range

From patent US7759459B2, “Fluorescent assays for protein kinases” (Albert Einstein College of Medicine of Yeshiva University, priority 2003, dated 2010)
